Earlier results in US10905116B2, “Antimicrobial fabric assemblies” (Higher Dimension Materials, Inc., priority 2016, dated 2021).

How the values were obtained:
[1] = test system: bacterium
[2] = test system: E. coli; conditions: against E. coli

SMILES | silver ion concentration enough to cause antimicrobial activity ([1]; released from silver nanoparticles confined in nanoscale cages, conditions of normal water, estimated) [parts per billion] | number of silver ions to kill a single bacterium ([1]; reported) | MIC value (Minimum Inhibitory Value) [2] [µg/mL]
[Ag+] [silver ion] | 50 | about 100 | –
[Ag] [silver] | – | – | 0.05 to 0.1
